Test results published in article PMC11876601 (Molecular Systems Biology, 2025).
Like-named read-outs stand apart in the source and are kept apart here.

Tests used:
Assay in all cases: cells
[1] = tested on: Colo-357; design: ATPlite luminescence viability of PDAC cell lines, 11-dose single-agent curves, 4-parameter fit; conditions: Homo sapiens, COLO357, 72 h, read-out: EC50 [nM]
Description: (§1) Afterward, small amounts were transferred to 384-well intermediate plates (Greiner Bio-One GmbH, Germany). […] For drug combination screening, 1000 to 5000 cells were seeded into 384-well plates (CulturPlate™, Perkin Elmer, MA, USA) using a Multidrop™ Combi Reagent Dispenser (Thermo Scientific, MA, USA) in 50 µl medium per well 24 h prior to drug treatment (seeding densities see Appendix Table S1). […] The final DMSO concentration in each well was 0.2%. […] Eight wells per plate without library drug served as negative controls, and sixteen wells per plate containing 5 µM Staurosporine served as positive controls. […] Next, we analyzed the drug sensitivity of immortalized duct cell line HPDE to detect effects unrelated to pancreatic cancer.

[2] = tested on: Suit2-07; design: ATPlite luminescence viability of PDAC cell lines, 11-dose single-agent curves, 4-parameter fit; conditions: 72 h, read-out: EC50 [nM]
Description: as §1

[3] = tested on: Dan-G; design: ATPlite luminescence viability of PDAC cell lines, 11-dose single-agent curves, 4-parameter fit; conditions: 72 h, read-out: EC50 [nM]
Description: as §1

[4] = tested on: BxPC-3; design: Viability of PDAC cell lines, ATPlite luminescence, 11-dose single-agent curve fit; conditions: Homo sapiens, BXPC-3, 72 h, read-out: EC50 [nM]
Summary of the method: (§2)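 cells (1000 to 5000 per well) seeded 24 h before drug addition in a screen at 0.2% final DMSO. Controls were drug-free wells (negative) and 5 µM staurosporine (positive).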

[5] = tested on: Capan-1; design: Viability of PDAC cell lines, ATPlite luminescence, 11-dose single-agent curve fit; conditions: Homo sapiens, CAPAN-1, 72 h, read-out: EC50 [nM]
Summary of the method: as §2

[6] = tested on: AsPC-1; design: Viability of PDAC cell lines, ATPlite luminescence, 11-dose single-agent curve fit; conditions: Homo sapiens, ASPC1, 72 h, read-out: EC50 [nM]
Summary of the method: as §2

[7] = tested on: HuP-T4; design: Viability of PDAC cell lines, ATPlite luminescence, 11-dose single-agent curve fit; conditions: Homo sapiens, HuP-T4, 72 h, read-out: EC50 [nM]
Summary of the method: as §2

[8] = tested on: PSN-1; design: Viability of PDAC cell lines, ATPlite luminescence, 11-dose single-agent curve fit; conditions: Homo sapiens, PSN1, 72 h, read-out: EC50 [nM]
Summary of the method: as §2

[9] = tested on: MiaPaCa-2; design: Viability of PDAC cell lines, ATPlite luminescence, 11-dose single-agent curve fit; conditions: Homo sapiens, MIA PaCa-2, 72 h, read-out: EC50 [nM]
Summary of the method: as §2

[10] = tested on: HPDE; design: Viability of PDAC cell lines, ATPlite luminescence, 11-dose single-agent curve fit; conditions: HPDE, 72 h, read-out: EC50 [nM]
Summary of the method: as §2

[11] = tested on: FAMPAC; design: Viability of PDAC cell lines, ATPlite luminescence, 11-dose single-agent curve fit; conditions: 72 h, read-out: EC50 [nM]
Summary of the method: as §2

[12] = tested on: PANC-1; design: Viability of PDAC cell lines, ATPlite luminescence, 11-dose single-agent curve fit; conditions: Homo sapiens, PANC-1, 72 h, read-out: EC50 [nM]
Summary of the method: as §2

[13] = tested on: PaTu-8988-T; design: Viability of PDAC cell lines, ATPlite luminescence, 11-dose single-agent curve fit; conditions: Homo sapiens, PaTu 8988t, 72 h, read-out: EC50 [nM]
Summary of the method: as §2

[14] = tested on: MiaPaCa-2; design: ATPlite luminescence viability of PDAC cell lines, 11-dose single-agent curves, 4-parameter fit; conditions: Homo sapiens, MIA PaCa-2, 72 h, read-out: EC50 [nM]
Description: as §1

[15] = tested on: PaTu-8988-T; design: ATPlite luminescence viability of PDAC cell lines, 11-dose single-agent curves, 4-parameter fit; conditions: Homo sapiens, PaTu 8988t, 72 h, read-out: EC50 [nM]
Description: as §1

[16] = tested on: Colo-357; design: Viability of PDAC cell lines, ATPlite luminescence, 11-dose single-agent curve fit; conditions: Homo sapiens, COLO357, 72 h, read-out: EC50 [nM]
Summary of the method: as §2

[17] = tested on: Suit2-07; design: Viability of PDAC cell lines, ATPlite luminescence, 11-dose single-agent curve fit; conditions: 72 h, read-out: EC50 [nM]
Summary of the method: as §2

[18] = tested on: BxPC-3; design: ATPlite luminescence viability of PDAC cell lines, 11-dose single-agent curves, 4-parameter fit; conditions: Homo sapiens, BXPC-3, 72 h, read-out: EC50 [nM]
Description: as §1

[19] = tested on: PSN-1; design: ATPlite luminescence viability of PDAC cell lines, 11-dose single-agent curves, 4-parameter fit; conditions: Homo sapiens, PSN1, 72 h, read-out: EC50 [nM]
Description: as §1

[20] = tested on: FAMPAC; design: ATPlite luminescence viability of PDAC cell lines, 11-dose single-agent curves, 4-parameter fit; conditions: 72 h, read-out: EC50 [nM]
Description: as §1

[21] = tested on: Dan-G; design: Viability of PDAC cell lines, ATPlite luminescence, 11-dose single-agent curve fit; conditions: 72 h, read-out: EC50 [nM]
Summary of the method: as §2

[22] = tested on: AsPC-1; design: ATPlite luminescence viability of PDAC cell lines, 11-dose single-agent curves, 4-parameter fit; conditions: Homo sapiens, ASPC1, 72 h, read-out: EC50 [nM]
Description: as §1

SMILES | EC50 [2] [nM] | EC50 [3] [nM] | EC50 [4] [nM] | EC50 [5] [nM] | EC50 [6] [nM] | EC50 [7] [nM] | EC50 [8] [nM] | EC50 [9] [nM] | EC50 [10] [nM] | EC50 [12] [nM] | EC50 [13] [nM] | EC50 [14] [nM] | EC50 [15] [nM] | EC50 [16] [nM] | EC50 [17] [nM] | EC50 [18] [nM] | EC50 [19] [nM] | EC50 [20] [nM] | EC50 [21] [nM] | also measured
CC(C)NC[C@@H](C(=O)N1CCN(c2ncnc3c2[C@H](C)C[C@H]3O)CC1)c1ccc(Cl)cc1 [Ipatasertib] | 3240 | 1150 | 246 | 4690 | 154 | 310 | 7080 | 3940 | 5290 | > 10000 | 543 | – | – | – | – | – | – | – | – | EC50 [1]: 151 nM; EC50 [11]: 642 nM
COc1cc2nccc(Oc3ccc(NC(=O)C4(C(=O)Nc5ccc(F)cc5)CC4)cc3)c2cc1OC [Cabozantinib] | – | > 10000 | > 10000 | 6600 | > 10000 | 3810 | > 10000 | – | > 10000 | 3550 | – | > 10000 | 4020 | 4380 | > 10000 | – | – | – | – | EC50 [11]: > 10000 nM
CC(C)(C)c1nc(-c2cccc(NS(=O)(=O)c3c(F)cccc3F)c2F)c(-c2ccnc(N)n2)s1 [Dabrafenib] | 883 | – | – | 50.5 | 975 | 1830 | – | 971 | 197 | 5600 | 749 | – | – | 9480 | – | 348 | 341 | 428 | 274 | –
N#CCNC(=O)c1ccc(-c2ccnc(Nc3ccc(N4CCOCC4)cc3)n2)cc1 [Momelotinib] | 5780 | – | – | 9140 | 4110 | 2670 | – | – | 8470 | 8650 | – | > 10000 | > 10000 | 953 | – | – | > 10000 | > 10000 | 6780 | –
CO[C@]1(C(=O)N[C@@H](C)c2ccc(-n3cc(F)cn3)nc2)CC[C@H](c2nc(C)cc(Nc3cc(C)[nH]n3)n2)CC1 [Pralsetinib] | > 10000 | 6680 | – | > 10000 | 1820 | 4550 | – | – | 4600 | 1860 | – | 773 | 6490 | – | – | 2910 | 5870 | 5210 | – | EC50 [1]: 6960 nM
O=C(c1cc(Cc2n[nH]c(=O)c3ccccc23)ccc1F)N1CCN(C(=O)C2CC2)CC1 [Olaparib] | – | 3940 | 3550 | > 10000 | 446 | 3200 | > 10000 | 5000 | 1490 | > 10000 | 1870 | – | – | 7820 | 9600 | – | – | 8230 | – | –
Cn1cnc2c(F)c(Nc3ccc(Br)cc3Cl)c(C(=O)NOCCO)cc21 [Selumetinib] | – | – | – | 4670 | – | 276 | – | – | 268 | 87.4 | 94.7 | 24.1 | – | 22.3 | 451 | 1360 | 229 | 8370 | 1490 | EC50 [22]: 59.5 nM
